Assay results taken from paper PMC9127493 (Signal Transduction and Targeted Therapy, 2022).

Experiments:
[1] = tested on: SARS-CoV-2 variant Omicron; experiment: microbe, parasite or virus in culture; format: cell-based; settings: Severe acute respiratory syndrome coronavirus 2; n = 6
SARS-CoV-2 variant Alpha = experiment: microbe, parasite or virus in culture; format: cell-based; settings: Severe acute respiratory syndrome coronavirus 2; n = 6
SARS-CoV-2 variant Beta = experiment: microbe, parasite or virus in culture; format: cell-based; settings: Severe acute respiratory syndrome coronavirus 2; n = 6
Omicron variant = experiment: Cytopathic effect (CPE) inhibition assay in Vero E6 cells; format: cell-based, SARS-CoV-2
SARS-CoV-2 variant Delta = experiment: microbe, parasite or virus in culture; format: cell-based; settings: Severe acute respiratory syndrome coronavirus 2; n = 6
[2] = tested on: four SARS-CoV-2 variants of concern (VOCs), including Alpha, Beta, Delta and Omicron; format: cell-based; settings: at 200 nM

| Compound | EC50 [1] [nM] | EC50 (SARS-CoV-2 variant Alpha) [nM] | EC50 (SARS-CoV-2 variant Beta) [nM] | rescue of cytopathic effect (Omicron variant) | EC50 (SARS-CoV-2 variant Delta) [nM] | viral inhibition [2] |
| --- | --- | --- | --- | --- | --- | --- |
| Cc1cccc(/C=N/Nc2cc(N3CCOCC3)nc(OCCc3ccccn3)n2)c1 [Apilimod] | < 6.9 | < 6.9 | < 6.9 | significantly rescued the cytopathic effects | < 6.9 |  |
| CCC(CC)COC(=O)[C@H](C)N[P@](=O)(OC[C@H]1O[C@@](C#N)(c2ccc3c(N)ncnn23)[C@H](O)[C@@H]1O)Oc1ccccc1 [Remdesivir] | 615 | 609 | 495 |  | 938 |  |
| COc1ccc(C(=O)Nc2cccc(C(F)(F)F)c2)cc1Nc1nc(-c2cccnc2)c2[nH]ccc2n1 [XMU-MP-7] | < 6.9 | < 6.9 | 12.4 | significantly rescued the cytopathic effects | < 6.9 | complete viral inhibition |
